# Data as given in ChEMBL document CHEMBL1201862, “PubChem BioAssay data set” (2004).
#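 96-well plates; 48 h exposure; 5 concentrations. Endpoints by linear interpolation between flanking doses. Not reached: highest tested concentration assigned. GI50 = concentration required for 50% inhibition of growth.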 Activity calls are given as the source filed them. Cut-off read from the data, not from the text of the source: active = GI50 up to about 1.1 µM and inactive = higher.
# Assays:
# Test in all cases: NCI anticancer screen, dose series, 48 h
# [1] = test system: ACHN
# [2] = test system: HCT-116
# [3] = test system: HCT-15
# [4] = test system: HOP-62
# [5] = test system: HT-29
# [6] = test system: LOX IMVI
# [7] = test system: M14
# [8] = test system: NCI-H226
# [9] = test system: OVCAR-3
# [10] = test system: OVCAR-4
# [11] = test system: OVCAR-5
# [12] = test system: RXF 393
# [13] = test system: SF-539
# [14] = test system: SK-MEL-28
# [15] = test system: SK-MEL-2
# [16] = test system: SK-MEL-5
# [17] = test system: SK-OV-3
# [18] = test system: SNB-19
# [19] = test system: Hs-578T
Structure (SMILES),GI50 [1],GI50 [2],GI50 [3],GI50 [4],GI50 [5],GI50 [6],GI50 [7],GI50 [8],GI50 [9],GI50 [10],GI50 [11],GI50 [12],GI50 [13],GI50 [14],GI50 [15],GI50 [16],GI50 [17],GI50 [18],GI50 [19]
CCOC(=O)C1=C(OC(OCC)C([Se]c2ccccc2)C(C)C)CCC1 (centres undefined),23.4 µM (inactive),12.5 µM (inactive),15.2 µM,68.7 µM (inactive),19.1 µM (inactive),2.31 µM (inactive),15.8 µM (inactive),13.7 µM (inactive),15.1 µM (inactive),16.1 µM (inactive),22.3 µM (inactive),9.46 µM (inactive),12.3 µM (inactive),16.4 µM (inactive),15.1 µM (inactive),13 µM (inactive),81.7 µM (inactive),27.2 µM (inactive),
Cc1cc(S(=O)(=O)O)c(NC(=O)C(=O)Cc2cc(=O)oc3cc(O)ccc23)cc1Cl,> 100 µM (inactive),> 100 µM (inactive),> 100 µM,> 100 µM (inactive),> 100 µM (inactive),> 100 µM (inactive),> 100 µM (inactive),> 100 µM (inactive),> 100 µM (inactive),> 100 µM (inactive),> 100 µM (inactive),> 100 µM (inactive),> 100 µM (inactive),> 100 µM (inactive),> 100 µM (inactive),> 100 µM (inactive),> 100 µM (inactive),> 100 µM (inactive),
CC(=O)C1C(=O)C(=O)N(c2ccccc2C(C)C)C1=O (centres undefined),> 100 µM (inactive),> 100 µM (inactive),> 100 µM,> 100 µM (inactive),> 100 µM (inactive),> 100 µM (inactive),> 100 µM (inactive),> 100 µM (inactive),> 100 µM (inactive),> 100 µM (inactive),> 100 µM (inactive),> 100 µM (inactive),> 100 µM (inactive),> 100 µM (inactive),> 100 µM (inactive),> 100 µM (inactive),> 100 µM (inactive),> 100 µM (inactive),
COc1ccc(COC2CC(OC)OC(C)C2OC(=O)c2ccccc2)cc1 (centres undefined),24.3 µM (inactive),28.6 µM (inactive),17.8 µM,> 73.5 µM (inactive),16.6 µM (inactive),22.6 µM (inactive),34.6 µM (inactive),21.7 µM (inactive),31.9 µM (inactive),32.8 µM (inactive),30.2 µM (inactive),19.1 µM (inactive),54.1 µM (inactive),41.2 µM (inactive),54 µM (inactive),17 µM (inactive),> 100 µM (inactive),> 64.9 µM (inactive),
O=C(CC(c1ccccc1)C(C(=O)c1ccncc1)C(CC(=O)c1ccncc1)c1ccccc1)c1ccncc1 (centres undefined),70 µM (inactive),> 100 µM (inactive),> 100 µM,44.5 µM (inactive),> 100 µM (inactive),> 100 µM (inactive),> 100 µM (inactive),38.5 µM (inactive),75.9 µM (inactive),> 10 µM (inactive),> 100 µM (inactive),,,> 100 µM (inactive),78.7 µM (inactive),> 10 µM (inactive),29.2 µM (inactive),39 µM (inactive),30 µM (inactive)
COc1ccc(O)cc1 [MEQUINOL],31.3 µM (inactive),> 100 µM (inactive),24.5 µM,40.8 µM (inactive),> 100 µM (inactive),49 µM (inactive),53.5 µM (inactive),> 100 µM (inactive),44.8 µM (inactive),> 100 µM (inactive),35.4 µM (inactive),> 100 µM (inactive),47.4 µM (inactive),> 100 µM (inactive),> 100 µM (inactive),42.8 µM (inactive),> 100 µM (inactive),> 100 µM (inactive),
O=C(O)CCCCCO,> 100 µM (inactive),> 100 µM (inactive),> 100 µM,> 100 µM (inactive),> 100 µM (inactive),> 100 µM (inactive),> 100 µM (inactive),> 100 µM (inactive),> 100 µM (inactive),> 100 µM (inactive),> 100 µM (inactive),> 100 µM (inactive),> 100 µM (inactive),> 100 µM (inactive),> 100 µM (inactive),> 100 µM (inactive),> 100 µM (inactive),> 100 µM (inactive),
CSC(SC)(C(=O)O)c1cc(-c2c(Cl)cccc2Cl)no1,46.9 µM (inactive),26.9 µM (inactive),15.5 µM,87.5 µM (inactive),32.9 µM (inactive),35.6 µM (inactive),30.2 µM (inactive),25.1 µM (inactive),55.6 µM (inactive),37.9 µM (inactive),60.1 µM (inactive),,> 100 µM (inactive),> 100 µM (inactive),26.3 µM (inactive),33.7 µM (inactive),> 100 µM (inactive),> 100 µM (inactive),39.2 µM (inactive)
CCCCN1/C(=N/Nc2n[nH]c(=O)c3ccccc23)SCC1c1ccc(Cl)cc1 (centres undefined),25.3 µM (inactive),13.9 µM (inactive),6.52 µM,6.24 µM (inactive),24.2 µM (inactive),,5.55 µM (inactive),10.4 µM (inactive),15 µM (inactive),53.3 µM (inactive),29.1 µM (inactive),20.1 µM (inactive),12.7 µM (inactive),19.1 µM (inactive),20.9 µM (inactive),3.55 µM (inactive),21.8 µM (inactive),10.6 µM (inactive),15.1 µM (inactive)
COC(=O)/C(C#N)=C1\CCC(OC)N1 (centres undefined),> 100 µM (inactive),> 100 µM (inactive),> 100 µM,> 100 µM (inactive),> 100 µM (inactive),> 100 µM (inactive),> 100 µM (inactive),> 100 µM (inactive),> 100 µM (inactive),> 100 µM (inactive),> 100 µM (inactive),47.2 µM (inactive),> 100 µM (inactive),> 100 µM (inactive),> 100 µM (inactive),> 100 µM (inactive),> 100 µM (inactive),> 100 µM (inactive),
C=C(CCCCC)CN1CCCC1C(C)=O (centres undefined),25.5 µM (inactive),27.6 µM (inactive),31.6 µM,22.3 µM (inactive),29.6 µM (inactive),18.8 µM (inactive),41.5 µM (inactive),22 µM (inactive),27.9 µM (inactive),4.45 µM (inactive),22.2 µM (inactive),34.1 µM (inactive),35.6 µM (inactive),57.3 µM (inactive),26.1 µM (inactive),17.9 µM (inactive),31.2 µM (inactive),> 62.1 µM (inactive),
O=C(NNc1nc(-c2ccccc2)cs1)C(F)(F)F,29.2 µM (inactive),47.3 µM (inactive),57.3 µM,33.2 µM (inactive),47.2 µM (inactive),57.7 µM (inactive),57.1 µM (inactive),20.5 µM (inactive),,> 100 µM (inactive),> 100 µM (inactive),75 µM (inactive),,25.8 µM (inactive),36.3 µM (inactive),35.3 µM (inactive),61.1 µM (inactive),63.8 µM (inactive),15.9 µM (inactive)
